# Measured values as given in patent US20240317801A1, “PEPTIDOMIMETIC MATRIPTASE 2 INHIBITORS AND USES THEREOF” (Disc Medicine, Inc., priority 2020, published 2024).
# Target: T1, Human Recombinant Matriptase 2 (Homo sapiens, UniProt Q8IU80)
# T1 construct: purchased Enzo Life Sciences ALX-201-752-1
# T1 sequence (Q8IU80 1-811): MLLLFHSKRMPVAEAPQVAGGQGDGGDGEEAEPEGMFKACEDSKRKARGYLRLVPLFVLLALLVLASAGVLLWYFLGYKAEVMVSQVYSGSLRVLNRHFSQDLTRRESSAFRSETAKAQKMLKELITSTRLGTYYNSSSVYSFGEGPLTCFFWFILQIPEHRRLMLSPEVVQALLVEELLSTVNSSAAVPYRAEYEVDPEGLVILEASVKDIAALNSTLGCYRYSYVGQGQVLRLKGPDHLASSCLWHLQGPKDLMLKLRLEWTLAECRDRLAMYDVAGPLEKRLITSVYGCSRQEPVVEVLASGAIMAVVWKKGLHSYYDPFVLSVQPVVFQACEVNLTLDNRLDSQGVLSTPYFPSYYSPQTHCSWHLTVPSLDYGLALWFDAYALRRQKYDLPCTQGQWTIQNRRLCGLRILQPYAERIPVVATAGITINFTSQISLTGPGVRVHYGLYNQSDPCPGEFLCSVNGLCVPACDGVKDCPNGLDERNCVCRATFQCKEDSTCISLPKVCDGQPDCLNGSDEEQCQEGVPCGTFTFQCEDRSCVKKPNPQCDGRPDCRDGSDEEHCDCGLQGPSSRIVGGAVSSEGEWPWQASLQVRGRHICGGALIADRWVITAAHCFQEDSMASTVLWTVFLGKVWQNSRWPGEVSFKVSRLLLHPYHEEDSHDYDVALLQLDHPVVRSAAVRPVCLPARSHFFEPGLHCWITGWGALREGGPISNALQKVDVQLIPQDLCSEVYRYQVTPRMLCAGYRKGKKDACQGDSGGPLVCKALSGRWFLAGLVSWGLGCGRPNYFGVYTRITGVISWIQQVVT
# Test: Matriptase 2 fluorescence-based inhibition assay (Boc-Gln-Ala-Arg-AMC substrate)
# Assay type: biochemical
# Conditions: Ki derived from measured IC50 using Cheng-Prusoff equation; 30 min preincubation, 100 μM substrate, 25° C., pH 7.5; read-out: Mat-2 Ki
# Description: Test compounds were evaluated for their potential to inhibit Human Recombinant Matriptase 2 (in-house and commercial protein from Enzo Life Sciences—cat log—ALX-201-752-1) using fluorescence-based assay. The concentration of Recombinant Matriptase 2 and the substrate used in the assay were: 7 nM (commercial) and 15 nM (In-house Matriptase 2) and 100 μM (Boc-Gln-Ala-Arg-7-amido-4-methyl coumarin hydrobromide—Cat log: B4153-Sigma and I-1550 from Bachem) respectively. The assay buffer used comprised 50 mM TRIS pH 7.5, 150 mM NaCl, 0.01% gelatin (G1393 Sigma). The assay was performed by using 384 well black flat bottom plate from Grenier (Cat log: 781076) at 25° C. The enzyme and the test compound were preincubated for 30 mins, and the plate was read at wavelength Ex: 360/Em:480 nm60 mins after substrate addition. The final assay volume of was 20 μl. Stock solution of compounds were initially prepared in DMSO, which were appropriately diluted for screening to determine IC50 determination (final DMSO conc in the assay was 1%). All the measurements were carried out using the Spectramax M5, Molecular devices. The test compounds were screened at 1 and 10 μM concentrations and IC50 was determined for the interested compounds.
# Ki is the binding affinity of an inhibitor. Mat-2 Ki as described herein is the binding affinity of an inhibitor such as a compound as described and provided herein to Mat-2. Mat-2 Ki values are derived from the measured IC50. To determine IC50 values, dose-response curves were generated by plotting percentage inhibition as a function of inhibitor concentration and the data was fitted to a sigmoidal non-linear regression equation (variable slope) using Graph Pad Prism software V7. Mat-2 Ki values as described herein were derived from the IC50 using the Cheng-Prusoff equation, which is understood and appreciated by one the skill in the art. The Mat-2 Ki values of tested compounds as described herein are shown in Table A. Accordingly, the compounds can be used to inhibit matriptase 2 and treat diseases and conditions associated with matriptase 2, such as those described herein.
row,Compound,Ki [nM]
1,C[C@@H](O)[C@H](NC(=O)[C@H](CCc1ccccc1)NC(=O)CCc1ccccc1)C(=O)N[C@@H](CCCNC(=N)N)C(=O)C(N)=O,≤ 100
2,CNC(=O)C(=O)[C@H](CCCNC(=N)N)NC(=O)[C@@H](NC(=O)[C@H](CCc1ccccc1)NC(=O)CCc1ccccc1)[C@@H](C)O,≤ 100
3,C[C@@H](O)[C@H](NC(=O)[C@H](CCc1ccccc1)NC(=O)CCc1ccccc1)C(=O)N[C@@H](CCCNC(=N)N)C(=O)C(=O)N(C)C,≥ 1000
4,CCNC(=O)C(=O)C(CCCNC(=N)N)NC(=O)[C@@H](NC(=O)[C@H](CCc1ccccc1)NC(=O)CCc1ccccc1)[C@@H](C)O (stereo partly shown),≤ 100
5,CNC(=O)C(O)C(CCCNC(=N)N)NC(=O)[C@@H](NC(=O)[C@H](CCc1ccccc1)NC(=O)CCc1ccccc1)[C@@H](C)O (stereo partly shown),≥ 1000
6,CCOC(=O)CNC(=O)C(=O)C(CCCNC(=N)N)NC(=O)[C@@H](NC(=O)C(CCc1ccccc1)NC(=O)CCc1ccccc1)[C@@H](C)O (stereo partly shown),100 to 1000
7,CC(C)[C@H](NC(=O)[C@H](Cc1cscn1)NC(=O)CCc1ccccc1)C(=O)N[C@@H](CCCNC(=N)N)C(=O)C(=O)NC1CC1,≤ 100
8,C[C@@H](O)[C@H](NC(=O)[C@H](Cc1cscn1)NC(=O)CCc1ccccc1)C(=O)N[C@@H](CCCNC(=N)N)C(=O)C(=O)NC1CC1,≤ 100
9,CO[C@H](C)[C@H](NC(=O)[C@H](CCc1ccccc1)NC(=O)CCc1ccccc1)C(=O)N[C@@H](CCCNC(=N)N)C(=O)C(=O)NC1CC1,≤ 100
10,C[C@H](O)[C@H](NC(=O)[C@H](CCc1ccccc1)NC(=O)CCc1ccccc1)C(=O)NC(CCCNC(=N)N)C(=O)C(=O)NC1CC1 (stereo partly shown),≤ 100
11,CCNC(=O)C(=O)C(Cc1cccc(Cl)c1)NC(=O)[C@@H](NC(=O)[C@H](CCc1ccccc1)NC(=O)CCc1ccccc1)[C@@H](C)O (stereo partly shown),≥ 1000
12,N=C(N)NCCC[C@H](NC(=O)C1(NC(=O)[C@H](CCc2ccccc2)NC(=O)CCc2ccccc2)CCC1)C(=O)C(=O)NC1CC1,≤ 100
13,CNC(=O)C(=O)[C@H](CCCNC(=N)N)NC(=O)[C@@H](NC(=O)[C@H](CCc1ccccc1)NC(=O)OCc1ccccc1)[C@@H](C)O,≤ 100
14,C[C@@H](O)[C@H](NC(=O)C(CCc1ccccc1)NC(=O)CCc1ccccc1)C(=O)NC(Cc1cccc(CN)c1)C(=O)C(=O)NC1CC1 (stereo partly shown),100 to 1000
15,C[C@@H](O)[C@H](NC(=O)C(CCc1ccccc1)NC(=O)CCc1ccccc1)C(=O)NC(Cc1ccc(N)nc1)C(=O)C(=O)NC1CC1 (stereo partly shown),≥ 1000
16,C[C@@H](O)[C@H](NC(=O)[C@H](CCc1ccccc1)NC(=O)CCc1ccccc1)C(=O)N[C@@H](CCCNC(=N)N)C(=O)C(=O)NC1(c2cccnc2)CC1,≤ 100
17,C[C@H](O)[C@H](NC(=O)[C@H](CCc1ccccc1)NC(=O)CCc1ccccc1)C(=O)NC(CCCNC(=N)N)C(=O)C(=O)NC(C)(C)C (stereo partly shown),≤ 100
18,C[C@@H](O)[C@H](NC(=O)[C@H](Cc1cscn1)NC(=O)OCc1ccccc1)C(=O)N[C@@H](CCCNC(=N)N)C(=O)C(=O)NC(C)(C)C,≤ 100
19,CC(C)[C@H](NC(=O)[C@H](Cc1cscn1)NC(=O)OCc1ccccc1)C(=O)N[C@@H](CCCNC(=N)N)C(=O)C(=O)NC(C)(C)C,≤ 100
20,C[C@@H](O)[C@H](NC(=O)[C@H](CCc1ccccc1)NC(=O)CCc1ccccc1)C(=O)NC(CCc1nc(N)no1)C(=O)C(=O)NC(C)(C)C (stereo partly shown),≥ 1000

row,Compound,Ki [nM]
1,C[C@@H](O)[C@H](NC(=O)[C@H](Cc1cscn1)NC(=O)CCc1ccccc1)C(=O)N[C@@H](CCCNC(=N)N)C(=O)C(=O)NC(C)(C)C,≤ 100
2,CC(C)[C@H](NC(=O)[C@H](Cc1cscn1)NC(=O)CCc1ccccc1)C(=O)N[C@@H](CCCNC(=N)N)C(=O)C(=O)NC(C)(C)C,≤ 100
3,C[C@@H](O)[C@H](NC(=O)[C@H](Cc1cccnc1)NC(=O)OCc1ccccc1)C(=O)NC(CCCNC(=N)N)C(=O)C(=O)NC(C)(C)C (stereo partly shown),≤ 100
4,CO[C@@H]1CC(C(=O)N[C@@H](CCCNC(=N)N)C(=O)C(=O)NC(C)(C)C)N(C(=O)[C@H](Cc2cscn2)NC(=O)OCc2ccccc2)C1 (stereo partly shown),≤ 100
5,CC(C)(C)NC(=O)C(=O)[C@H](CCCNC(=N)N)NC(=O)C1C[C@@H](O)CN1C(=O)[C@H](Cc1cscn1)NC(=O)OCc1ccccc1 (stereo partly shown),≤ 100
6,C[C@H](O)[C@H](NC(=O)[C@H](CCc1ccccc1)NC(=O)OCc1ccccc1)C(=O)N[C@@H](CCCNC(=N)N)C(=O)C(=O)NC(C)(C)C,≤ 100
7,C[C@H](O)[C@H](NC(=O)[C@H](Cc1cscn1)NC(=O)OCc1ccccc1)C(=O)N[C@@H](CCCNC(=N)N)C(=O)C(=O)NC(C)(C)C,≤ 100
8,CC(C)(C)NC(=O)C(=O)C(CCCNC(=N)N)NC(=O)C1(NC(=O)[C@H](Cc2cscn2)NC(=O)OCc2ccccc2)CCCC1 (stereo partly shown),≤ 100
9,C[C@@H](O)[C@H](NC(=O)[C@H](Cc1ccc(F)cc1)NC(=O)OCc1ccccc1)C(=O)NC(CCCNC(=N)N)C(=O)C(=O)NC(C)(C)C (stereo partly shown),≤ 100
10,C[C@H](O)[C@H](NC(=O)[C@H](CCc1ccccc1)NC(=O)CCc1ccccc1)C(=O)N[C@@H](CCCNC(=N)N)C(=O)C(=O)N[C@@H]1C[C@@H]1F,≤ 100
11,CO[C@@H](C)C(NC(=O)[C@H](Cc1cscn1)NC(=O)OCc1ccccc1)C(=O)NC(CCCNC(=N)N)C(=O)C(=O)NC(C)(C)C (stereo partly shown),≤ 100
12,CO[C@H](C)[C@H](NC(=O)[C@H](Cc1cscn1)NC(=O)OC(C)C)C(=O)NC(CCCNC(=N)N)C(=O)C(=O)NC(C)(C)C (stereo partly shown),≤ 100
13,CO[C@H](C)[C@H](NC(=O)C(Cc1cscn1)NC(=O)OCc1ccccc1)C(=O)NC(Cc1ccnc(N)c1)C(=O)C(=O)NC(C)(C)C (stereo partly shown),≤ 100
14,C[C@@H](O)[C@H](NC(=O)C(CCc1ccccc1)NC(=O)OCc1ccccc1)C(=O)NC(CCCS(C)(=N)=O)C(=O)C(=O)NC(C)(C)C (stereo partly shown),≥ 1000
15,CC(C)(C)NC(=O)C(=O)[C@H](CCCNC(=N)N)NC(=O)C1COCCN1C(=O)[C@H](Cc1cscn1)NC(=O)OCc1ccccc1 (stereo partly shown),≤ 100
16,CO[C@@H](C)[C@H](NC(=O)C(CCc1ccccc1)NC(=O)OCc1ccccc1)C(=O)NC(CCCNC(=N)N)C(=O)C(=O)NC(C)(C)C (stereo partly shown),≤ 100
17,C[C@@H](O)[C@H](NC(=O)C(CCc1ccccc1)NC(=O)OCc1ccccc1)C(=O)NC(CCc1ccc(N)nc1)C(=O)C(=O)NC(C)(C)C (stereo partly shown),100 to 1000
18,"C[C@@H](O)[C@H](NC(=O)[C@H](CCc1ccccc1)NC(=O)CCc1ccccc1)C(=O)NC(CCCNC(=N)N)C(=O)C(=O)NCc1cccnc1 (stereo partly drawn) [6-guanidino-3-((2S,3R)-3-hydroxy-2-((S)-4-phenyl-2-(3-phenylpropanamido)butanamido)butanamido)-2-oxo-N-(pyridin-3-ylmethyl)hexanamide]",≤ 100
19,"N=C(N)NCCC[C@H](NC(=O)[C@@H]1C[C@@H](OCc2ccccc2)CN1C(=O)[C@H](CCc1ccccc1)NC(=O)CCc1ccccc1)C(=O)C(=O)NC1CC1 [(2S,4R)-4-(benzyloxy)-N—((S)-1-(cyclopropylamino)-6-guanidino-1,2-dioxohexan-3-yl)-1-((S)-4-phenyl-2-(3-phenylpropanamido)butanoyl)pyrrolidine-2-carboxamide]",≤ 100
20,"N=C(N)NCCC[C@H](NC(=O)[C@@H]1C[C@@H](O)CN1C(=O)[C@H](CCc1ccccc1)NC(=O)CCc1ccccc1)C(=O)C(=O)NC1CC1 [(2S,4R)—N—((S)-1-(cyclopropylamino)-6-guanidino-1,2-dioxohexan-3-yl)-4-hydroxy-1-((S)-4-phenyl-2-(3-phenylpropanamido)butanoyl)pyrrolidine-2-carboxamide]",≤ 100
